# Tests used:
# human peripheral cells = assay: mitogen (PHA)-driven proliferation, [3H]-thymidine incorporation; type: cell-based
# Method: Ninety five ml of blood were taken from each of 10 volunteer donors, and 5 ml of 3-5% EDTA were added to the blood immediately and mixed carefully to prevent coagulation. The blood was than mixed with the equal volume of medium 199 or with buffered physiological salt solution. Ficoll-Paque (Pharmacia) was poured into plastic centrifuge test-tubes with caps (Costar) (3 ml of Ficoll-Paque per each test-tube, volume of a test-tube - 15 ml, diameter - 13 mm at room temperature, and then 6-7 ml of diluted blood were carefully layered on top). The test-tubes were centrifuged at 20 °C for 40 minutes, at 400 g, with the brake of centrifuge being switched off. The mononuclear cells formed a layer on the border of the liquid division and the cells were collected with a Pasteur pipette into a centrifuge test-tube with 5 ml of RPMI 1640, containing 2% of inactivated fetal serum and penicillin (100 units/ml) with streptomycin (100 units/ml). Then the cells were washed with physiological buffer solution (PBS) three times with centrifuging at 400 g for 5 minutes at the temperature of +8 °C. When the concentration of the cells was 2.5^·10^6 cells/ml, they were placed in RPMI 1640 medium, containing 5% of fetal serum (heated for 30 minutes at 56 °C), 100 units/ml of penicillin, 100 units/ml of streptomycin, 1 ml 200 mM of L-glutamine per 100 ml of serum. All the reagents were produced by Gibco. The cells were dropped into a 96-well plate (100 µl per each plate) with mitogen - phytohemagglutinin (PHA) (final concentration - […]), the preparations under study and immunosuppressants (cyclosporin A, FK506 or rapamycin) in concentration - […]) were pipetted into the tubes beforehand. The plate was placed in a CO2-incubator at 5% CO2 with humid atmosphere for 72 hours. 12-18 hours before the completion of the incubation […] of [^3H]-thymidine was added into each well. […] The number of disintegrations per minute was counted using a Minibeta counter (LKB). The stimulation index was determined by arithmetical mean of at least three parallel measurements ±SD to the corresponding control.
# [1] = test system: human T-lymphoblastoid cell line MT-4; assay: proliferation of IFN-sensitive T-lymphoblastoid cell line; type: cell-based; settings: MT-4 cell line
# [2] = target: common receptors on mouse thymocytes; settings: cited from earlier work
substance,measurement,setting,value
"α-peptoferon: octapeptide corresponding to the high-affinity binding/anti-lymphoproliferative site of hIFN-α2 (TMα1-like sequence 130-137) (LKEKKYSP; UniProt P01563 153-160, looked up, fragment)",effect on mitogen (PHA)-driven proliferation (lymphoproliferative response),"human peripheral cells; PHA, 72 hours, no immunosuppressant",inhibited by rhIFN-α2 and a-peptoferon in a dose-dependent fashion
same,effect on PHA-driven proliferation compared with rhIFN-α2,"human peripheral cells; PHA, no immunosuppressant",comparable effects
same,effect on PHA-driven proliferation in the presence of cyclosporin A,"human peripheral cells; in the presence of 20 mM CsA in cultural medium, rhIFN-α2 at 10^-16 M",comparable effect
same,effect on the proliferation of MT-4,[1],inhibited by rhIFN-α2 and a-peptoferon in a dose-dependent fashion
same,effect on the proliferation of MT-4 compared with rhIFN-α2,[1],comparable effects
same,Ki,"[2]; mouse thymocytes, read-out: Ki of recombinant (r)hIFN-α2 binding by α-peptoferon",~1 pM
same,affinity to the specific receptors in comparison with recombinant hIFN-α2,[2]; previous studies,the same or higher affinity

# — patent publication EP0981359B1, “COMPOSITIONS FOR ENHANCING IMMUNOSUPPRESSANTS' PHARMACOLOGICAL ACTIVITIES” (Zavialov, Vladimir Petrovich, priority 1997, dated 1998)
